Laboratory results taken from patent EP0917465B1, “ANTIMALARIAL AND ANTI-BABESIOSIS AGENTS AND PHARMACEUTICAL COMPOSITIONS CONTAINING THE SAME AGENTS” (priority 1996, dated 1998).

Assays:
[1] = Therapeutic index in infected mice: 4-day Peters test activity versus semi-chronic toxicity (DL 50); type: in vivo, souris Swiss mâles; conditions: mouse, in vivo, ratio of activity to toxicity under identical conditions, intraperitoneal or subcutaneous, twice a day for 4 days, read-out: Index thérapeutique
From the text: Afin d'évaluer l'index thérapeutique des divers produits, on a mesuré l'activité de ceux-ci dans un test in vivo et comparé à la toxicité aiguë chez l'animal . Cette activité est mesurée suivant le test décrit par PETERS W. ( Chemotherapy and Drug résistance in Malaria, 1970). Un composé est administré pendant quatre jours consécutifs à des souris préalablement impaludées par Plasmodium vinckei, petteri, ou chabaudi, ledit composé étant dissous dans une solution de NaCI à 0.9 %. Les préparations sont ainsi administrées par voie intrapéritonéale ou par voie sous-cutanée à des souris Swiss mâles infectées par voie IV, avec Plasmodium petterei ou Plasmodium chabaudi (10^6 cellules infectées ). Le composé est administré deux fois par jour pendant 4 jours consécutifs, la première injection étant pratiquée 2 heures après l'infestation et la deuxième, 10 heures après. La parasitémie est déterminée par un frottis, le jour suivant la fin du traitement. La toxicité est mesurée in vivo selon la même méthode, les animaux ayant reçu dans les conditions d'administration ci-dessus, 2 injections par jour pendant 4 jours ( toxicité semi chronique). Les résultats sont exprimés sous forme de DL 50, soit la dose ayant entraîné la mort de 50% des animaux.
Les résultats des essais sont résumés dans le tableau I ci-après sous forme d'index thérapeutique, soit le rapport de l'activité à la toxicité mésurées dans des conditions identiques comme décrit ci-dessus.

[2] = test system: Plasmodium falciparum; assay: In vitro antimalarial activity, (3H) hypoxanthine incorporation in infected human erythrocytes (Desjardins test); type: cell-based; conditions: Plasmodium falciparum, Erythrocyte, concentration inhibiting in vitro parasite growth by 50 %; human erythrocytes infected with Plasmodium falciparum; 24 h contact, test lasts 60 to 70 h; read-out: IC50 exprimée en micromoles
From the text: L'activité antipaludéenne des dérivés selon les exemples précédents est testée sur l'humain infesté par Plasmodium falciparum. Le produit à tester est mis en contact avec les érythrocytes humains infectés pendant 24 heures. Un précurseur radioactif d'acides nucléiques l'Hypoxanthine (^3H) est ensuite ajouté. Le précurseur ne s'incorpore que dans les cellules infectées par un parasite en croissance, c'est à dire dans les cellules que la drogue n'aura pas affectées.
L'aptitude ou non à incorporer le précurseur reflète donc la viabilité des cellules impaludées. La durée des tests est de 60 à 70 heures ( test de DESJARDINS R.E. , CANFIELD C.J., HATNES J.D. et CHULAY J.D., Antimicrob. Agents Chemother. 1979, 16, p 710-718 ). Les résultats sont consignés dans le tableau I ci-après, sous forme de IC50 (ou DE50), soit la concentration de produit dans le milieu expérimental capable d'inhiber in vitro la croissance du parasite d'une valeur de 50%.

[3] = test system: Babesia Bovis, Babesia Canis; assay: In vitro anti-Babesia activity, (3H) hypoxanthine incorporation; type: cell-based; conditions: class of ID 50 for (3H) hypoxanthine incorporation; read-out: Activité/ Babesia à 10 millimole
From the text: Le procédé de criblage d'activité anti-malaria, basé sur l'incorporation de l'(^3H) Hypoxanthine par le parasite, est utilisé pour tester l'activité anti-métabolique de tels composés sur Babesia Bovis, Babesia Canis. Une relation étroite est trouvée entre le taux d'incorporation de (^3H) Hypoxanthine dans une mesure standard et le pourcentage de cellules parasitées, déterminé par examen microscopique. Cette activité métabolique est quantifiée et évaluée dans le tableau ci-dessous par la cotation +++ pour les molécules affichant dans le test une inhibition de 50 % de l'incorporation de (^3H) Hypoxanthine (ID 50), ces molécules étant à une concentration inférieure ou égale à 0,01 Micromolaire. La cotation est de ++ pour la même activité à une concentration de 0,01 à 0.1 micromolaire et enfin de + pour une concentration inférieure ou égale à 1 Micromolaire.

SMILES | selectivity ratio [1] | IC50 [2] [nM] | IC50 [3] [nM]
C[N+]1(CCCCCCCCCCCCCCCC[N+]2(C)CCCC2CO)CCCC1CO (stereo not drawn) [EXEMPLE 18, 1,1'-(1, 16-hexadecanediyl) bis (2-hydroxymethyl-1-methylpyrrolidinium) dibromure] | 22 | 1 | < 10
C[N+]1(CCCCCCCCCCCCCCCC[N+]2(C)CCCC(CO)C2)CCCC(CO)C1 (stereo not drawn) [EXEMPLE 20, 1,1'-(1,16-hexadecanediyl) bis (1-methyl-3hydroxy methyl piperidinium) dibromure] | 17 | 0.3 | < 10
